Several values for one entry are separate records, joined by “and”; a condition that tells them apart may be missing. Identical values can stand only once.
Columns and labels:
[1] = biological target: T1, bile salt-stimulated lipase (Homo sapiens, UniProt P19835); settings: cited from earlier work
T1 sequence (P19835 21-753): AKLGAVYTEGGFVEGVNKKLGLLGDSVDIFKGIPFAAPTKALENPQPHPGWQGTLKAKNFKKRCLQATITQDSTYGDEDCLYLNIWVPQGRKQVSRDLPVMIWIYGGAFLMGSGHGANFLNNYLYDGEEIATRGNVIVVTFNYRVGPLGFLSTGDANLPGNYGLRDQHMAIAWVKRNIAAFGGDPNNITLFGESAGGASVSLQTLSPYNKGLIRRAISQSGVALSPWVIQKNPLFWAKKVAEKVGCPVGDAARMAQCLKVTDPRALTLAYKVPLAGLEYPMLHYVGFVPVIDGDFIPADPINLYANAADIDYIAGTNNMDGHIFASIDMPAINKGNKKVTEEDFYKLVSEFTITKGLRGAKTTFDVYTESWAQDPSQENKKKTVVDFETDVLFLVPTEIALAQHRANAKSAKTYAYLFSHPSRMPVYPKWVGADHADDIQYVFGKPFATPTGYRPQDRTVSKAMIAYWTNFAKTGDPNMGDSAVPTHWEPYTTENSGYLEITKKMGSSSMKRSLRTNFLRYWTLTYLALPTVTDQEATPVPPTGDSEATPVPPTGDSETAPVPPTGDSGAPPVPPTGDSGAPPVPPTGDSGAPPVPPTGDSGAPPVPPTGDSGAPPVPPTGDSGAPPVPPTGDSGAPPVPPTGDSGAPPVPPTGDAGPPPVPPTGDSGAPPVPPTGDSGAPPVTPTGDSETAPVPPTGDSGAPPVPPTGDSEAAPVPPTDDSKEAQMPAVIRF

[2] = tested on: blood ammonia in pediatric patients with UCDs; test: HPN-100-012 open-label fixed sequence switch-over study, blood ammonia control; type: in vivo, human
Description: HPN-100-012, an open-label, fixed sequence, switch-over study of the safety, PK and efficacy of HPN-100 compared to NaPBA in patients with UCDs, with a 12-month safety extension part. […] After review of all the safety data by the DSMB, 8 additional subjects were enrolled in the study after the switch-over phase was completed. The primary efficacy endpoint was the 24-hour AUC (area under the curve) for blood ammonia on Day 1 compared with Day 10.

ammonia in UCD patients = test: Open label fixed-sequence switch-over comparison of RAVICTI to NaPBA, 4 patients aged 2 months to 2 years; type: in vivo, human
Description: While the U.S. approval of RAVICTI® was based on its evaluation in 6 clinical trials involving over 100 adult and pediatric UCD patients aged 2 months old and above, only 7 patients aged 2 months to 2 years were enrolled in these studies. […] PAA exposure, also assessed as 24-hour area under the curve, was very similar. However, the number of patients in this age group studied at the time of RAVICTI's approval was small and considerable patient-to-patient variability was observed.

[3] = HPN-100-005 pharmacokinetics of HPN-100 and NaPBA in pediatric UCD patients; type: in vivo, human; settings: HPN-100-005 (N = 11)
Description: The pharmacokinetics of the short term studies can be summarized as follows. Mean exposure levels of HPN-100 metabolites PBA, PAA, and PAGN after doses of HPN-100 and NaPBA with meals (TID) in pediatric (29 days to 17 years of age) UCD patients in HPN-100-005 and HPN-100-012 studies are summarized below. The mean exposure to PBA, the parent metabolite, and mean exposure to PAGN, the terminal metabolite, show no systematic variation across age groups, while PAA exposure tended to decrease with increasing age, a finding consistent with those from population PK modeling which indicate that the rate of clearance/metabolism of PAA varies directly with body size. While systemic metabolite exposure, assessed as peak plasma concentration (Cmax) or AUC, is generally similar for HPN-100 and NaPBA, the minimum concentration (Cmin-ss) was higher—and/or percent-fluctuation less—for plasma PAGN, a finding consistent with slower gastrointestinal absorption of PBA when administered orally as HPN-100.

[4] = tested on: venous ammonia in pediatric patients with UCDs; test: Studies 4/4E and 5, uncontrolled open-label studies in children under 2 years of age; type: in vivo, human
Procedure: Uncontrolled, open-label studies were conducted to assess monthly ammonia control and hyperammonemic crisis of RAVICTI® in pediatric patients with UCDs 2 months to less than 2 years of age (Study 4/4E, Study 5, and Study 6). Patients in Study 5 previously participated in Study 4/4E. A total of 17 pediatric patients with UCDs aged 2 months to less than 2 years participated in the studies.
A total of 7 patients with UCDs aged 2 months to less than 2 years participated in Studies 4/4E and 5. In these studies, there were 7, 6, 6, 6 and 3 pediatric patients who completed 1, 6, 9, 12 and 18 months, respectively (mean and median exposure of 15 and 17 months, respectively). Patients were converted from sodium phenylbutyrate to RAVICTI®. The dosage of RAVICTI® was calculated to deliver the same amount of PBA as the sodium phenylbutyrate dosage the patients were taking when they entered the study.
Patients received a mean RAVICTI® dose of 7.5 mL/m^2/day (8.2 g/m^2/day), with doses ranging from 3.3 to 12.3 mL/m^2/day (3.7 to 13.5 g/m^2/day). Patients were dosed three times a day (n=3) or four times a day (n=4).
Venous ammonia levels were monitored on days 1, 3 and 10 in Study 4 and at week 1 in Study 4E. Two patients had day 1 ammonia values of 122 micromol/L and 111 micromol/L respectively, neither had associated signs and symptoms of hyperammonemia.
During the extension period, venous ammonia levels were monitored monthly. Ammonia values across different laboratories were normalized (transformed) to a common normal pediatric range of 28 to 57 micromol/L for comparability. The mean venous ammonia values in pediatric patients at month 1, 3, 6, 9 and 12 were 58, 49, 34, 65, and 31 micromol/L during treatment with RAVICTI®, respectively.
Three patients reported a total of 3 hyperammonemic crises, as defined in Study 6. Hyperammonemic crises were precipitated by gastroenteritis, vomiting, infection or no precipitating event (one patient). There were 4 patients who had one venous ammonia level that exceeded 100 micromol/L which was not associated with a hyperammonemic crisis.

[5] = original scale, predefined non-inferiority upper margin 1.25
[6] = pediatric UCD patients, TID with meals, arithmetic mean
[7] = Studies 4/4E, 5 extension period, normalized to 28 to 57 micromol/L

O=C(CCCc1ccccc1)OCC(COC(=O)CCCc1ccccc1)OC(=O)CCCc1ccccc1 [HPN-100, benzenebutanoic acid, 1′,1″-(1,2,3-propanetriyl) ester]
hydrolysis in vitro by bile salt-stimulated lipase [1]: hydrolyze | Mean blood ammonia at the 12-hour time point ([2]; HPN-100 Day 10, NaPBA Day 1, highest value for both treatments): 28.24 µmol/L | Mean blood ammonia at the 8-h time point ([2]; HPN-100 Day 10, lowest value on HPN-100): 23.20 µmol/L | 24-hour AUC for blood ammonia, HPN-100 vs NaPBA, upper 90% CI [2, 5]: 1.002 | 24-hour AUC for blood ammonia, HPN-100 vs NaPBA, upper 95% CI [2, 5]: 1.055 | ammonia AUC, median difference between treatments (HPN-100 vs NaPBA) ([2]; pediatric UCD patients 29 days to <6 years): -37.84 µmol·h/L | 24-hour AUC for blood ammonia (primary efficacy endpoint), HPN-100 compared to NaPBA ([2]; pediatric UCD patients aged 29 days to <6 years, Day 1 (NaPBA) vs Day 10 (HPN-100), non-inferiority upper margin 1.25): non-inferior | Blood ammonia levels postprandially at any given time point, HPN-100 (Day 10) vs NaPBA (Day 1) ([2]; postprandial): directionally lower | PAA exposure assessed as 24-hour area under the curve, RAVICTI vs NaPBA (ammonia in UCD patients): very similar | mean ammonia exposure assessed at 24-hour area under the curve, RAVICTI vs NaPBA (ammonia in UCD patients): non-inferior | Plasma PAA CLss/F [3, 6]: 15082 mL/min | Plasma PBA CLss/F [3, 6]: 20545 mL/min | Plasma PAGN CLss/F ([3]; pediatric UCD patients, TID with meals, arithmetic mean (CV %)): 14237 mL/min | U-PAGN Ae0-12 ([3]; urinary PAGN excreted 0-12 h, arithmetic mean): 5611719 µg | U-PAGN Ae12-24 ([3]; urinary PAGN excreted 12-24 h, arithmetic mean): 6889318 µg | U-PAGN Ae ([3]; urinary PAGN excreted, arithmetic mean): 12501037 µg | patients with one venous ammonia level exceeding 100 micromol/L not associated with a hyperammonemic crisis ([4]; Studies 4/4E, 5): 4 patients | total hyperammonemic crises ([4]; Studies 4/4E, 5, reported by three patients): 3 | mean venous ammonia, month 1 [4, 7]: 58 µmol/L | mean venous ammonia, month 3 [4, 7]: 49 µmol/L | mean venous ammonia, month 6 [4, 7]: 34 µmol/L | mean venous ammonia, month 9 [4, 7]: 65 µmol/L | mean venous ammonia, month 12 [4, 7]: 31 µmol/L | day 1 ammonia values of two individual patients ([4]; Studies 4/4E, no associated signs and symptoms of hyperammonemia, listed as RAVICTI®): 122 µmol/L and 111 µmol/L | patients with venous ammonia levels less than 100 micromol/L at day 10/week 1 ([4]; Studies 4/4E, of the 7 patients): six | day 10 ammonia value of the remaining patient ([4]; Study 4, asymptomatic): 168 µmol/L

From patent US20170348269A1, “TREATMENT OF UREA CYCLE DISORDERS IN NEONATES AND INFANTS” (Horizon Therapeutics, LLC, priority 2016, published 2017)
